Experiments:
Assay in all cases: relative viability (nuclei count vs DMSO), 5 days (fraction); higher = more cells survive
[1] = compound: O[C@@H](COc1cccc2ncccc12)CN1CCN([C@@H]2c3ccccc3[C@@H]3[C@H](c4ccccc42)C3(F)F)CC1 [Zosuquidar] + COc1cc2c(Oc3ccc(NC(=O)C4(C(=O)Nc5ccc(F)cc5)CC4)cc3F)ccnc2cc1OCCCN1CCOCC1 [Foretinib] (partner 0.25 µM)
Method in brief: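 Dosing by pin tool came one day after lung cancer cell lines were seeded in 1536-well plates, using either one drug or a fixed anchor-drug dose plus five library-drug doses (not always all listed) in √10 steps. After 5 days, nuclei were counted on 4× images. Relative viability is treated-well nuclei count divided by vehicle-well nuclei count, and values are medians of duplicate plates.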

[2] = compound: C1=CC(=CC=C1NC(=S)NNC2=C(C=C(C=C2[N+](=O)[O-])C(F)(F)F)[N+](=O)[O-])F [Kobe2602]
Method in brief: (§1)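 Lung cancer cell lines in 1536-well plates were kept overnight at 37 °C, then pinned with five library-drug doses (not always all listed) spaced by √10 on vehicle-anchored plates. After 5 days without medium change, cells were fixed, permeabilised and Hoechst-stained in one step, imaged at 4×, and nuclei were counted with MetaXpress. Viability is treated-well nuclei divided by vehicle-well nuclei, taken as the median over plates. Plates passed only with control CV below 25% and at least one doubling.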

[3] = compound: COc1cc2nccc(Oc3ccc(NC(=O)C4(C(=O)Nc5ccc(F)cc5)CC4)cc3)c2cc1OC [Cabozantinib]
Method in brief: as §1

[4] = compound: O[C@@H](COc1cccc2ncccc12)CN1CCN([C@@H]2c3ccccc3[C@@H]3[C@H](c4ccccc42)C3(F)F)CC1 [Zosuquidar]
Method in brief: as §1

| Cell Line | relative viability ([1]; first compound 0.01 µM) | relative viability ([1]; first compound 0.03162 µM) | relative viability ([1]; first compound 0.1 µM) | relative viability ([1]; first compound 0.3162 µM) | relative viability ([1]; first compound 1 µM) | relative viability ([2]; 0.2 µM) | relative viability ([2]; 0.6325 µM) | relative viability ([2]; 2 µM) | relative viability ([2]; 6.325 µM) | relative viability ([2]; 20 µM) | relative viability ([3]; 0.02 µM) | relative viability ([3]; 0.06325 µM) | relative viability ([3]; 0.2 µM) | relative viability ([3]; 0.6325 µM) | relative viability ([3]; 2 µM) | relative viability ([4]; 0.01 µM) | relative viability ([4]; 0.03162 µM) | relative viability ([4]; 0.1 µM) | relative viability ([4]; 0.3162 µM) | relative viability ([4]; 1 µM) |
| --- | --- | --- | --- | --- | --- | --- | --- | --- | --- | --- | --- | --- | --- | --- | --- | --- | --- | --- | --- | --- |
| NCI-H1703 | 0.353 | 0.287 | 0.341 | 0.393 | 0.33 | 0.831 | 1.08 | 0.83 | 0.898 | 0.727 | 0.57 | 0.662 | 0.325 | 0.262 | 0.233 | 1.07 | 1.14 | 0.993 | 1.12 | 1.01 |
| SK-MES-1 | 0.891 | 0.872 | 0.879 | 1.05 | 0.94 | 0.96 | 1.05 | 0.964 | 0.97 | 0.855 | 0.981 | 1.14 | 0.986 | 1.03 | 0.953 | 0.998 | 0.993 | 0.912 | 1.02 | 1.04 |
| NCI-H522 | – | – | – | – | – | 1.08 | 1.11 | 0.997 | 0.895 | 0.979 | 0.863 | 0.98 | 0.897 | 0.98 | 1.15 | 1.01 | 0.809 | 0.955 | 1.06 | 0.907 |
| LOU-NH91 | 0.882 | 0.857 | – | 0.936 | 0.91 | 0.993 | 1.05 | 0.912 | 0.999 | 1.04 | 0.919 | 1.13 | 0.885 | 0.926 | 0.975 | 0.888 | 0.953 | 0.775 | 1.01 | 0.922 |
| NCI-H1355 | 0.951 | 0.989 | 0.9 | 1.02 | 0.923 | 0.914 | 1.01 | 0.911 | 0.965 | 0.959 | 0.954 | 1.11 | 0.977 | 0.96 | 0.961 | 0.99 | 0.967 | 0.843 | 1.06 | 0.973 |
| NCI-H460 | 0.922 | 0.987 | 0.987 | 0.969 | 0.952 | 1.03 | 0.955 | 0.986 | 1.04 | 0.963 | 1.05 | 1.06 | 1.05 | 0.976 | 1.03 | 0.993 | 0.964 | 0.969 | 1.02 | 0.974 |
| NCI-H1793 | 0.747 | 0.914 | – | 0.896 | 0.641 | 0.862 | 0.889 | 0.853 | 0.86 | 1.04 | 0.846 | 0.992 | 0.59 | 0.832 | 0.776 | 0.902 | 0.754 | – | 1.15 | 0.892 |
| NCI-H2023 | 0.936 | 0.759 | 0.689 | 0.998 | 0.99 | 0.941 | 1.02 | 0.984 | 0.924 | 0.663 | 0.93 | 0.998 | 0.803 | 0.78 | 0.593 | 0.949 | 1.03 | 0.894 | 1.1 | 1.05 |
| NCI-H1666 | 0.946 | 1.01 | 0.976 | 1.02 | 0.942 | 1.06 | 1.01 | 0.963 | 1.03 | 1 | 1.01 | 1.08 | 1.02 | 1.03 | 1.06 | 0.997 | 1.08 | 0.962 | 1.08 | 0.945 |
| HARA | 0.857 | – | 0.883 | 0.866 | 0.999 | 0.978 | 1.13 | 0.944 | 1.01 | 1.03 | 0.916 | 1.16 | 0.714 | 1.04 | 1.05 | 0.98 | 0.852 | 0.944 | 1.01 | 0.941 |
| NCI-H358 | 0.654 | 0.615 | 0.719 | 0.598 | 0.702 | 0.993 | 1.03 | 0.862 | 0.828 | 0.97 | 0.936 | 1.02 | 0.833 | 0.981 | 0.813 | 0.959 | 0.914 | 0.871 | 0.878 | 0.937 |
| NCI-H3122 | 0.891 | 0.922 | 0.909 | 0.934 | 0.955 | 1.01 | 0.971 | 1.01 | 0.985 | 1.04 | 0.995 | 1.05 | 1.03 | 0.983 | 0.998 | 0.984 | 0.952 | 0.919 | 1.07 | 0.987 |
| 201T | 1.16 | 1.17 | 0.935 | 1.04 | 1.19 | 1 | 1.01 | 0.946 | 0.997 | 0.963 | 0.868 | 1.1 | 0.967 | 1 | 0.965 | 0.947 | 0.979 | 0.883 | 0.985 | 0.982 |
| SK-LU-1 | 0.799 | 0.871 | 0.937 | 0.961 | 0.77 | 1 | 1.13 | 0.937 | 1.04 | 1.1 | 0.97 | 1.24 | 1.08 | 0.926 | 0.942 | 1.1 | 1.02 | 0.962 | 1.11 | 1.07 |
| HCC-44 | – | – | – | – | – | 0.982 | 1.02 | 0.974 | 0.958 | 0.942 | 1.01 | 1.05 | 1.04 | 1.06 | 1.01 | 1.01 | 1.03 | 0.987 | 1.05 | 0.978 |
| NCI-H1648 | – | – | – | – | – | 1.22 | 0.902 | 0.701 | 0.824 | 0.763 | 0.868 | 0.991 | 0.629 | 1.07 | 0.802 | 0.969 | 0.947 | 0.676 | 0.673 | 0.852 |
| NCI-H1792 | – | – | – | – | – | 0.99 | 1.02 | 0.848 | 0.978 | 1.07 | – | 1.21 | 0.915 | 0.894 | 0.898 | 0.833 | 0.94 | 0.729 | 0.954 | 0.834 |

— the supplement of paper PMC10307832
